Positions count from the first letter of the chain named.
Tests used:
IDH2 R172K = molecular target: T1, IDH2 R172K (Homo sapiens, UniProt P48735, R172K); assay: IDH2 R172K enzymatic assay (NADPH cofactor depletion, diaphorase/resazurin readout); assay type: biochemical; conditions: read-out: Enz R172K
T1 sequence (P48735 40-452 R172K): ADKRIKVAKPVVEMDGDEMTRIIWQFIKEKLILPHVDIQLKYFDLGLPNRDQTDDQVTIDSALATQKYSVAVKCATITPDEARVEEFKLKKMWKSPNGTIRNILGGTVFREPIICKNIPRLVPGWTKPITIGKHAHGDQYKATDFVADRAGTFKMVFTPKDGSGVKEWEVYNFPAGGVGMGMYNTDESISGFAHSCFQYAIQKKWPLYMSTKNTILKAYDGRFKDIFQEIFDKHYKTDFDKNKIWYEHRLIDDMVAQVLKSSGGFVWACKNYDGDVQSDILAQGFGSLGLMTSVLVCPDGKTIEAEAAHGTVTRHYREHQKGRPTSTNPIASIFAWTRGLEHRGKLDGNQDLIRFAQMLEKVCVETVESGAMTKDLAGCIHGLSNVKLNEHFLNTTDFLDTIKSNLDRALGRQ
Method: Compounds are assayed for IDH2 R172K inhibitory activity through a cofactor depletion assay. […] The reaction is terminated by the addition of a second enzyme, diaphorase, and a corresponding substrate, resazurin. Diaphorase reduces resazurin to the highly fluorescent resorufin with the concomitant oxidation of NADPH to NADP, both halting the IDH2 reaction by depleting the available cofactor pool and facilitating quantitation of the amount of cofactor remaining after a specific time period through quantitative production of an easily detected fluorophore.
The test compound is then incubated for one hour at room temperature with the enzyme; before starting the IDH2 reaction with the addition of 10 μl of substrate mix containing 50 μM NADPH and 6.3 mM α-KG in the buffer described above. After a further one hour of incubation at room temperature, the reaction is halted and the remaining NADPH measured through conversion of resazurin to resorufin by the addition of 25 μl Stop Mix (36 μg/ml diaphorase enzyme and 60 μM resazurin; in buffer).

IDH2 R140Q = molecular target: T2, IDH2 R140Q (Homo sapiens, UniProt P48735, R140Q); assay: IDH2 R140Q enzymatic assay (cofactor depletion, similar format); assay type: biochemical; conditions: read-out: Enz R140Q
T2 sequence (P48735 40-452 R140Q): T1 sequence (P48735 40-452 R172K) with R101Q, K133R

[1] = system: U87MG pLVX-IDH2 R140Q-neo cells; assay: U87MG pLVX-IDH2 R140Q-neo cell based assay, 2-HG in media by LC-MS at 48 hours; conditions: Homo sapiens, U-87 MG
Summary of the method: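 2-HG secreted into the medium was measured by LC-MS after 48 h of compound treatment (0.2% DMSO final) of U87MG pLVX-IDH2 R140Q-neo cells in DMEM/10% FBS. The same wells were assayed at 72 h by CellTiter-Glo luminescence for effects on growth.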

IC50 (IDH2 R172K) [nM] | IC50 (IDH2 R140Q) [nM] | IC50 [1] [nM] | Compound
100 to 1000 | < 100 | 100 to 1000 | CC(C)Nc1nc(Nc2ccncc2)nc(-c2cccc(Cl)c2)n1 [Compound 185, 6-(3-chlorophenyl)-N^2-isopropyl-N^4-(pyridin-4-yl)-1,3,5-triazine-2,4-diamine]
100 to 1000 | < 100 | < 100 | CCC(C)Nc1nc(Nc2ccncc2)nc(-c2ccccc2)n1 (stereo not drawn) [Compound 186, N^2-sec-butyl-6-phenyl-N^4-(pyridin-4-yl)-1,3,5-triazine-2,4-diamine]
100 to 1000 | < 100 | < 100 | c1ccc(-c2nc(Nc3ccncc3)nc(NC3CCCC3)n2)cc1 [Compound 187]
100 to 1000 | < 100 | < 100 | c1ccc(-c2nc(Nc3ccncc3)nc(NC3CCC3)n2)cc1 [Compound 188, N^2-cyclobutyl-6-phenyl-N^4-(pyridin-4-yl)-1,3,5-triazine-2,4-diamine]
1000 to 10000 | < 100 | 100 to 1000 | CC(C)(C)Nc1nc(Nc2ccncc2)nc(-c2ccccc2)n1 [Compound 189, N^2-tert-butyl-6-phenyl-N^4-(pyridin-4-yl)-1,3,5-triazine-2,4-diamine]
100 to 1000 | < 100 | < 100 | CC(C)CNc1nc(Nc2ccncc2)nc(-c2ccccc2)n1 [Compound 190, N^2-isobutyl-6-phenyl-N^4-(pyridin-4-yl)-1,3,5-triazine-2,4-diamine]
100 to 1000 | < 100 | < 100 | CC(C)(C)CNc1nc(Nc2ccncc2)nc(-c2ccccc2)n1 [Compound 191, N^2-neopentyl-6-phenyl-N^4-(pyridin-4-yl)-1,3,5-triazine-2,4-diamine]
100 to 1000 | < 100 | < 100 | CC(C)Nc1nc(Nc2cncc(F)c2)nc(-c2ccccc2)n1 [Compound 193, N^2-(5-fluoropyridin-3-yl)-N^4-isopropyl-6-phenyl-1,3,5-triazine-2,4-diamine]
< 100 | < 100 | < 100 | CC(C)Nc1nc(Nc2cncc(Cl)c2)nc(-c2ccccc2)n1 [Compound 194, N^2-(5-chloropyridin-3-yl)-N^4-isopropyl-6-phenyl-1,3,5-triazine-2,4-diamine]
100 to 1000 | < 100 | < 100 | COCc1cccc(Nc2nc(NC(C)C)nc(-c3ccccc3)n2)c1 [Compound 195, N^2-isopropyl-N^4-(3-(methoxymethyl)phenyl)-6-phenyl-1,3,5-triazine-2,4-diamine]
100 to 1000 | < 100 | < 100 | CC(C)Nc1nc(Nc2ccc(F)nc2)nc(-c2ccccc2)n1 [Compound 196, N^2-(6-fluoropyridin-3-yl)-N^4-isopropyl-6-phenyl-1,3,5-triazine-2,4-diamine]
100 to 1000 | < 100 | < 100 | CC(C)Nc1nc(Nc2ccnc(C#N)c2)nc(-c2ccccc2)n1 [Compound 197, 4-(4-(isopropylamino)-6-phenyl-1,3,5-triazin-2-ylamino)picolinonitrile]
100 to 1000 | < 100 | < 100 | CC(C)Nc1nc(Nc2cccc(CC#N)c2)nc(-c2ccccc2)n1 [Compound 198, 2-(3-(4-(isopropylamino)-6-phenyl-1,3,5-triazin-2-ylamino)phenyl)acetonitrile]
< 100 | < 100 | < 100 | CC(C)Nc1nc(Nc2ccnc(Cl)c2)nc(-c2ccccc2)n1 [Compound 199, N^2-(2-chloropyridin-4-yl)-N^4-isopropyl-6-phenyl-1,3,5-triazine-2,4-diamine]
100 to 1000 | < 100 | < 100 | CCOc1cc(Nc2nc(NC(C)C)nc(-c3ccccc3)n2)ccn1 [Compound 200, N^2-(2-ethoxypyridin-4-yl)-N^4-isopropyl-6-phenyl-1,3,5-triazine-2,4-diamine]
1000 to 10000 | < 100 | 100 to 1000 | CC(C)Nc1nc(Nc2cccc(C(C)(C)O)c2)nc(-c2ccccc2)n1 [Compound 201, 2-(3-(4-(isopropylamino)-6-phenyl-1,3,5-triazin-2-ylamino)phenyl)propan-2-ol]
< 100 | < 100 | < 100 | CC(C)Nc1nc(Nc2ccnc(C(F)(F)F)c2)nc(-c2ccccc2)n1 [Compound 202, N^2-isopropyl-6-phenyl-N^4-(2-(trifluoromethyl)pyridin-4-yl)-1,3,5-triazine-2,4-diamine]
1000 to 10000 | < 100 | 100 to 1000 | CC(C)(O)CNc1nc(Nc2ccccc2)nc(-c2ccccc2)n1 [Compound 203, 2-methyl-1-(4-phenyl-6-phenylamino-[1,3,5]triazin-2-yl-amino)-propan-2-ol]
1000 to 10000 | < 100 | 100 to 1000 | CCNS(=O)(=O)c1cccc(Nc2nc(NC(C)C)nc(-c3ccccc3)n2)c1 [Compound 204, N-ethyl-3-(4-(isopropylamino)-6-phenyl-1,3,5-triazin-2-ylamino)benzenesulfonamide]
100 to 1000 | < 100 | < 100 | CCS(=O)(=O)c1cccc(Nc2nc(NC(C)C)nc(-c3ccccc3)n2)c1 [Compound 205, N^2-(3-(ethylsulfonyl)phenyl)-N^4-isopropyl-6-phenyl-1,3,5-triazine-2,4-diamine]
100 to 1000 | < 100 | 100 to 1000 | CC(C)Nc1nc(Nc2cccc(S(=O)(=O)C(C)C)c2)nc(-c2ccccc2)n1 [Compound 206, N^2-isopropyl-N^4-(3-(isopropylsulfonyl)phenyl)-6-phenyl-1,3,5-triazine-2,4-diamine]
100 to 1000 | < 100 | 100 to 1000 | CC(C)(C)COC(=O)Nc1nc(Nc2ccccc2)nc(-c2ccccc2)n1 [Compound 208, Neopentyl 4-phenyl-6-(phenylamino)-1,3,5-triazin-2-ylcarbamate]
100 to 1000 | < 100 | 100 to 1000 | CCC(=O)Nc1nc(Nc2ccccc2)nc(-c2ccccc2)n1 [Compound 209, N-(4-phenyl-6-(phenylamino)-1,3,5-triazin-2-yl)propionamide]
100 to 1000 | < 100 | < 100 | CC(C)Nc1nc(Nc2cncc(C#N)c2)nc(-c2ccccc2)n1 [Compound 210, 5-(4-(isopropylamino)-6-phenyl-1,3,5-triazin-2-ylamino)nicotinonitrile]
100 to 1000 | < 100 | 100 to 1000 | CCCCNc1nc(Nc2ccncc2)nc(-c2ccccc2)n1 [Compound 211, N^2-butyl-6-phenyl-N^4-(pyridin-4-yl)-1,3,5-triazine-2,4-diamine]
100 to 1000 | < 100 | < 100 | CC(C)CCNc1nc(Nc2ccncc2)nc(-c2ccccc2)n1 [Compound 212, N^2-isopentyl-6-phenyl-N^4-(pyridin-4-yl)-1,3,5-triazine-2,4-diamine]
100 to 1000 | < 100 | < 100 | CC(C)C(C)Nc1nc(Nc2ccncc2)nc(-c2ccccc2)n1 (stereo not drawn) [Compound 213, N^2-(3-methylbutan-2-yl)-6-phenyl-N^4-(pyridin-4-yl)-1,3,5-triazine-2,4-diamine]
100 to 1000 | < 100 | 100 to 1000 | CC(C)Nc1nc(Nc2ccccc2)nc(-c2ccccn2)n1 [Compound 214, N-Isopropyl-N′-phenyl-6-pyridin-2-yl-[1,3,5]triazine-2,4-diamine]
1000 to 10000 | < 100 | 100 to 1000 | FC(F)(F)CNc1nc(Nc2ccncc2)nc(-c2ccccc2)n1 [Compound 215, 6-phenyl-N^2-(pyridin-4-yl)-N^4-(2,2,2-trifluoroethyl)-1,3,5-triazine-2,4-diamine]

From US9512107B2, “Therapeutically active compositions and their methods of use” (Agios Pharmaceuticals, Inc., priority 2012, dated 2016)
